Measurements reported in US20230241167A1, “Use of Caveolin-1 Scaffolding Domain Peptides for Treating Disease and Disorders” (MUSC Foundation for Research Development, priority 2020, published 2023).
Square brackets hold non-standard residues; d marks the D form. Ends that are not written are not given here. Peptide text beside a SMILES is read from it.

How the values were obtained:
[1] = tested on: Ang II-infused mice; assay: Angiotensin II-induced congestive heart failure (CHF) model; type: in vivo; conditions: for suppression of AngII-induced fibrosis in the heart (Col I deposition and HSP47 level) / suppression of AngII-induced microvascular leakage in the heart (IgG heavy chain level in the tissue): Western blot; for overall effectiveness of domains in the CHF model (summary of FIGS. 1-7): FIG. 8; for suppression of the effects of AngII on Heart Weight/Body Weight (HW/BW) ratio: young mice (3 months) infused with Ang II two weeks
Experimental: FIG. 1 provides an overview of an experiment using Full-Length CSD, 82-89, 88-95, and 94-101 (SEQ ID NO:1, SEQ ID NO:2, SEQ ID NO:3, and SEQ ID NO:4 respectively).
Young mice (3 months old) infused with Ang II or vehicle for two weeks received daily i.p. injections of CSD, the indicated subdomains or scrambled CSD (0.8 μmol/kg). Mice were evaluated by Echocardiography for changes in posterior wall thickness (pWTh), fractional shortening (FS), cardiac output (CO), ejection fraction (EF), and isovolumic relaxation time (IVRT). Significant changes are shown as ***p<0.001 for Sham+Veh vs AngII+Veh. Significant suppression of AngII-induced changes is shown as ^p<0.05, ^^p<0.01, and ^^^p<0.001 for AngII+Veh vs AngII+CSD or AngII+CSD subdomains. The number of mice used in each treatment are shown in the HW/BW data.
Young mice (3 months old) infused with Ang II or vehicle for two weeks received daily i.p. injections of the indicated subdomains of CSD. The results of a typical experiment for Col I and HSP47 (FIG. 4) and for microvascular leakage (FIG. 5) are shown in Western blots (2 to 3 mice per group). The data are quantified below (n=4). Significant changes are shown as *p<0.05 and **p<0.01 for Sham+Veh vs Ang II+Veh. Significant suppression of Ang II-induced changes by subdomains are shown as ^p<0.05, […], and ^^^p<0.001 for Ang II+Veh vs Ang II+CSD subdomains.
Young mice (3 months old) infused with Ang II or vehicle for two weeks received daily i.p. injections of W82-89. IgG heavy chain (IgGH) leakage and Col I accumulation are shown in Western blots. The actin loading control is present twice because IgGH was analyzed in the supernatant fraction of heart homogenate while Col I is found in the pellet fraction. In the quantitation (n=4), significant changes are shown as **p<0.01 and ***p<0.001 for Sham+Veh vs Ang II+Veh and ^^p<0.01 and ^^^p<0.001 for reversal of AngII-induced changes by W82-89.

[2] = tested on: bleomycin-treated mice; assay: Bleomycin-induced lung and skin fibrosis, treatments delivered by pump; type: in vivo; conditions: for bleomycin-induced lung fibrosis (Ashcroft score): treatment by pump over two weeks after one week bleomycin, n=6
Experimental: Experiments were conducted to examine the effect of unmodified CSD subdomains on lung and skin fibrosis. […] Pumps containing bleomycin or saline vehicle were implanted subcutaneously into mice. After one week, the pumps had emptied and were replaced with pumps designed to empty over two weeks containing the indicated treatments (n=6 per group). After these two weeks, the mice were sacrificed.
Skin in the vicinity of the pump outlet was harvested for measurement of the thickness of the dermis and the intradermal fat. ^^^p<0.001 for Saline/Vehicle vs Bleo/Vehicle. ***p<0.001, **p<0.01, *p<0.05 for Bleo/Vehicle vs Bleo/Peptide Treatments.

[3] = molecular target: PDGFRβ (Homo sapiens, UniProt P09619); assay: Inhibition of purified kinases; conditions: purified kinase
[4] = molecular target: VEGFR3 (Homo sapiens, UniProt P35916); assay: Inhibition of purified kinases; type: biochemical; conditions: purified kinase
[5] = molecular target: T1, PKCε (Homo sapiens, UniProt Q02156); assay: Inhibition of purified kinases; type: biochemical; conditions: purified kinase
T1 sequence (Q02156 1-737): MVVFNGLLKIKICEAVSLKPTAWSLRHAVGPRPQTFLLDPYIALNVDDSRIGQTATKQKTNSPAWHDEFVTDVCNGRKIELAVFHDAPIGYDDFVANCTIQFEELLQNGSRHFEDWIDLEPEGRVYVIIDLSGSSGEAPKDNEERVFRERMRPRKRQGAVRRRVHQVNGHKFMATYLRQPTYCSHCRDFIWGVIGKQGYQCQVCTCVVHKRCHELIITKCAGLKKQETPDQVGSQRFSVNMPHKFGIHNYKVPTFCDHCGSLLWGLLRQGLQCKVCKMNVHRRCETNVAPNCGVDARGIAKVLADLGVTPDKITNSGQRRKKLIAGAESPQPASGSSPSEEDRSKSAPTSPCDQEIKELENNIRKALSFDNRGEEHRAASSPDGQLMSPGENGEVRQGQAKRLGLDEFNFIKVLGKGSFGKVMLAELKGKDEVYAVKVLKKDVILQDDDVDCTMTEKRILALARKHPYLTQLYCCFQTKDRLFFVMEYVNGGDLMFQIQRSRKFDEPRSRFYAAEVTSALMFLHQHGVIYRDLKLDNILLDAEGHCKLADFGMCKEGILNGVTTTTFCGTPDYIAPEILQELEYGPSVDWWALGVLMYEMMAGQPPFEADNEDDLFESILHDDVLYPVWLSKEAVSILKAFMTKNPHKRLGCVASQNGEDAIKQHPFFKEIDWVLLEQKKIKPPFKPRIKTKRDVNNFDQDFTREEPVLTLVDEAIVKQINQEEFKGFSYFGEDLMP

[6] = molecular target: PKCα (Homo sapiens, UniProt P17252); assay: Inhibition of purified kinases; type: biochemical; conditions: purified kinase
[7] = molecular target: Src (Homo sapiens, UniProt P12931); assay: Inhibition of purified kinases; type: biochemical; conditions: purified kinase; nintedanib worked at much lower concentrations
Chain of Src (P12931 whole entry, species assumed): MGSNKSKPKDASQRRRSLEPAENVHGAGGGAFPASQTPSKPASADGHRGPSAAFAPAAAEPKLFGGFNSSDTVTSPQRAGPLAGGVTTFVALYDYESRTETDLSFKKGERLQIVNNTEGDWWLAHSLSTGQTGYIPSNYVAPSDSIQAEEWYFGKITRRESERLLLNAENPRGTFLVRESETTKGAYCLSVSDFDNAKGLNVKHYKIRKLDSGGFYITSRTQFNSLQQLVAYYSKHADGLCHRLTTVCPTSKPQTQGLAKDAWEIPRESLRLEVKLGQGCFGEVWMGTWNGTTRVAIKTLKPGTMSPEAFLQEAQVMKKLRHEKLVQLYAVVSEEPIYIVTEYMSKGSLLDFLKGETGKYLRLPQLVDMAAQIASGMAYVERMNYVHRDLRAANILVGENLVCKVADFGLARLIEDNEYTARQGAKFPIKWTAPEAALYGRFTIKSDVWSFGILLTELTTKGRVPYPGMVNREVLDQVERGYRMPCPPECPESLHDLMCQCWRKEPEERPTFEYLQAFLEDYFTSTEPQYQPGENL

[8] = molecular target: PDGFRα (Homo sapiens, UniProt P16234); assay: Inhibition of purified kinases; conditions: purified kinase
Chain of PDGFRα (P16234 24-1089, species assumed): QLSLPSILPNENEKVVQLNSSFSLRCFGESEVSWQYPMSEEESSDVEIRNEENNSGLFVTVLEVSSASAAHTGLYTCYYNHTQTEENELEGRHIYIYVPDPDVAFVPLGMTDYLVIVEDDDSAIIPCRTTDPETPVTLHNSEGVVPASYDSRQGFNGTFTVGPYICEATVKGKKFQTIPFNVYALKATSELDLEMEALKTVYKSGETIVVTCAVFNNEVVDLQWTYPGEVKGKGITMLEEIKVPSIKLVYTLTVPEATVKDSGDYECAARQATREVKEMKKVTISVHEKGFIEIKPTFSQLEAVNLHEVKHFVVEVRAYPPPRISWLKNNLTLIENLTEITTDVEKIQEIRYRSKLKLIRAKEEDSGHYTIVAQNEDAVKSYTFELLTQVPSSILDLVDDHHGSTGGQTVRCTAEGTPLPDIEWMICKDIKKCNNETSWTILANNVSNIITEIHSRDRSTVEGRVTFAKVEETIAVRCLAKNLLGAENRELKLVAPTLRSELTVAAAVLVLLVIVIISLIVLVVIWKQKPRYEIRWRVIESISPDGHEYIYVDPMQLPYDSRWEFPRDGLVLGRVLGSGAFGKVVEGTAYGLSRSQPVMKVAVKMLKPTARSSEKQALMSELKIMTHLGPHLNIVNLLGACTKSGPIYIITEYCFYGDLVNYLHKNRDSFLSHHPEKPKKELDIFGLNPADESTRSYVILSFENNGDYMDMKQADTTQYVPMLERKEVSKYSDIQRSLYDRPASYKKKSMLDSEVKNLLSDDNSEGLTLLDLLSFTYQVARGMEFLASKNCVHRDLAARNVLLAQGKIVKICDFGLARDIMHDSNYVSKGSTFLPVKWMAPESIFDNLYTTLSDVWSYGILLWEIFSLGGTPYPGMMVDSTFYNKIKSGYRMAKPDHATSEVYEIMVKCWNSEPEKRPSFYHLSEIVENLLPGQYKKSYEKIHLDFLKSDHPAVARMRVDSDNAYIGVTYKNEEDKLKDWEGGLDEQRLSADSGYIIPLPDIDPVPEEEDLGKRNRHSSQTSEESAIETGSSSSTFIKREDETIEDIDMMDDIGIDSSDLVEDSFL

[9] = molecular target: cMet (Homo sapiens, UniProt P08581); assay: Inhibition of purified kinases; type: biochemical; conditions: purified kinase
Chain of cMet (P08581 25-1390): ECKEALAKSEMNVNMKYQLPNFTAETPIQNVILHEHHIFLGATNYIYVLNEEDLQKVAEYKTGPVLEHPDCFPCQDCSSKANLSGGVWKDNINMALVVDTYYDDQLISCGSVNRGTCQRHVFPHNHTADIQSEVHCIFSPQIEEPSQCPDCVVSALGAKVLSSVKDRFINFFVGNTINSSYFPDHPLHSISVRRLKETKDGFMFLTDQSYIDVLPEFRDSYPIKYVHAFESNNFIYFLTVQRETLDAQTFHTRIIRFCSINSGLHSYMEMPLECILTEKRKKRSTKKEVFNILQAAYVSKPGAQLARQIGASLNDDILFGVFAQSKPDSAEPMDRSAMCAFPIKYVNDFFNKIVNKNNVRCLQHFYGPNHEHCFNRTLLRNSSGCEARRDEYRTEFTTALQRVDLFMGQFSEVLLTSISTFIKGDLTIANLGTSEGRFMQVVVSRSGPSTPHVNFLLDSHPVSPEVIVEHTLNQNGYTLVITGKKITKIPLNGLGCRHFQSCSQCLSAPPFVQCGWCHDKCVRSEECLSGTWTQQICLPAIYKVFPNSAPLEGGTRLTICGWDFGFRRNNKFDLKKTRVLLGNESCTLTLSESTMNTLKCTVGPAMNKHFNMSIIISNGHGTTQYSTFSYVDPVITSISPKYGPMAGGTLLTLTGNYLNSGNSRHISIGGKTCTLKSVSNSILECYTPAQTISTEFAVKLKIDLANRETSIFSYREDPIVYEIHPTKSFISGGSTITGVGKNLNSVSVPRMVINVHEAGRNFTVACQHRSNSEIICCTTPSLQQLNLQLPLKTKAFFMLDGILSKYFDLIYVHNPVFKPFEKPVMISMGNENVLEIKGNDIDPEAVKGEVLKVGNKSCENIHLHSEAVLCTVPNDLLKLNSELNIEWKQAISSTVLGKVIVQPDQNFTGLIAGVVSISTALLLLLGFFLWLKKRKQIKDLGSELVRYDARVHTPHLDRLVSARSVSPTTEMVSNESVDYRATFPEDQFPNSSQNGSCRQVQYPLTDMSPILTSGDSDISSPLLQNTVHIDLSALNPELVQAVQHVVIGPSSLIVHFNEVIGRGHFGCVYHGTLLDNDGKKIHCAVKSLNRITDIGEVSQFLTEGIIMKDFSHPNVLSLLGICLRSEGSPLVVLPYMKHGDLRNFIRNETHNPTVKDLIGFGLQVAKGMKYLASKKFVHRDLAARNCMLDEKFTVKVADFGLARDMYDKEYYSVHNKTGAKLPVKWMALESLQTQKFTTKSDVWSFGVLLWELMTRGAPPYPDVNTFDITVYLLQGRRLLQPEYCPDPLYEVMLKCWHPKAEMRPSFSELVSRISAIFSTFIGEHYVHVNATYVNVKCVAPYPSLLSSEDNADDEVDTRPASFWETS

[10] = molecular target: VEGFR1 (Homo sapiens, UniProt P17948); assay: Inhibition of purified kinases; type: biochemical; conditions: purified kinase
Chain of VEGFR1 (P17948 27-1338, species assumed): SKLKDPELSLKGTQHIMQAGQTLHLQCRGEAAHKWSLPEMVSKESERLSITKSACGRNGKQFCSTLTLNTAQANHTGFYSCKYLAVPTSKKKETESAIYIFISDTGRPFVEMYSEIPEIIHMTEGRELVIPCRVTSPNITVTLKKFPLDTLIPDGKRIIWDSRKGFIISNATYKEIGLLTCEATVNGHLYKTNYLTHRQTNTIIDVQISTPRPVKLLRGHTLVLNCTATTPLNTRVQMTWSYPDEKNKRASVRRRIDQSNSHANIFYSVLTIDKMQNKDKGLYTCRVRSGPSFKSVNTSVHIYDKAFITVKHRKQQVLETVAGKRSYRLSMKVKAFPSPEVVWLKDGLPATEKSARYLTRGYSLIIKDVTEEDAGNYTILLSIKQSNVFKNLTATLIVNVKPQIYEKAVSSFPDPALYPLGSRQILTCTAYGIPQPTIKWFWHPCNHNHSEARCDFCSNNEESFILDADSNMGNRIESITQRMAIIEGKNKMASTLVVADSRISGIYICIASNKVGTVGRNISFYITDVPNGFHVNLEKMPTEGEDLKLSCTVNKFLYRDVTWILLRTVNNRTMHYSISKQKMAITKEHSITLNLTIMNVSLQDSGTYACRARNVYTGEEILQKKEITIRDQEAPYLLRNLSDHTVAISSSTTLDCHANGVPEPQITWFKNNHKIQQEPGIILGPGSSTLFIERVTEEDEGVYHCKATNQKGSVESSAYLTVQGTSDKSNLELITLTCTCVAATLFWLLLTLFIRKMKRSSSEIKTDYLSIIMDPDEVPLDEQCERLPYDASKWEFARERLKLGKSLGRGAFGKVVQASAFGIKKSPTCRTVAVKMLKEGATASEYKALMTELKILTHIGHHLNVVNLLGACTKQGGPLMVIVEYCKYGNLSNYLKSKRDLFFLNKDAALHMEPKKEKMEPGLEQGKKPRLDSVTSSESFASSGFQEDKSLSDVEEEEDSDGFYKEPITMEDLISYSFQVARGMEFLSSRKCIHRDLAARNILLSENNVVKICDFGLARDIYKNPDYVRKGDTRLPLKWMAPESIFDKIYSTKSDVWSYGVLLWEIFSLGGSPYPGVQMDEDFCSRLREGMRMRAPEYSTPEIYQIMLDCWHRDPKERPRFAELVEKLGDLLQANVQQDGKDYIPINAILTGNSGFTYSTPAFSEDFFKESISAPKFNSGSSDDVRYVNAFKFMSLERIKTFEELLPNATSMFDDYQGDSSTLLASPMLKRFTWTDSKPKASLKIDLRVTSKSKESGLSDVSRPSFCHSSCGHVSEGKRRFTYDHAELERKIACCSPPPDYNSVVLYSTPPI

[11] = molecular target: T2, TGFβR1 (Homo sapiens, UniProt P36897); assay: Inhibition of purified kinases; type: biochemical; conditions: purified kinase; nintedanib worked at much lower concentrations
T2 sequence (P36897 34-503): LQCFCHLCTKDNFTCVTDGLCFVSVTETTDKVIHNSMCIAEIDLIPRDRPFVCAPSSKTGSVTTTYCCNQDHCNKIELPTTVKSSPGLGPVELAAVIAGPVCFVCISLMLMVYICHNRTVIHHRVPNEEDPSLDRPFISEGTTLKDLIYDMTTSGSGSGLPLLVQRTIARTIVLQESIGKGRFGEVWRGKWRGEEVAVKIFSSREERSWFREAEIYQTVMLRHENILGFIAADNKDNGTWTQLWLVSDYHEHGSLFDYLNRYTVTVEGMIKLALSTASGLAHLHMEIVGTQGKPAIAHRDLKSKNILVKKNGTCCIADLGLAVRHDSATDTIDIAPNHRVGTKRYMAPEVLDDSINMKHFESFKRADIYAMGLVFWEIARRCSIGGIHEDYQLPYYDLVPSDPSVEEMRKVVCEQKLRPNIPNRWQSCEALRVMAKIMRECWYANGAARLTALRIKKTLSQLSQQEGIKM

[12] = molecular target: VEGFR2 (Homo sapiens, UniProt P35968); assay: Inhibition of purified kinases; type: biochemical; conditions: purified kinase; nintedanib worked at much lower concentrations
[13] = tested on: bleomycin-treated mice; assay: Bleomycin-induced lung and skin fibrosis, daily i.p. WCSD; type: in vivo
Experimental: Pumps containing bleomycin or saline vehicle were implanted subcutaneously into mice. After one week, the pumps had emptied. In addition, mice were injected i.p. daily as indicated, then sacrificed on day 22. All groups contained 4 mice.
Fibrocytes (CD45+/Col I+ cells) were quantified by Flow Cytometry. ECM proteins (Col I, Tenascin C), myofibroblast markers (HSP47, ASMA), and microvascular leakage (IgG Heavy Chain that remained in the tissue after perfusion) were quantified by Western blotting (n=4). Western blot data were quantified densitometrically following normalization to an actin loading control. The value in Saline treated mice was set to 1.0 Arbitrary Unit. ^^p<0.01, ^p<0.05 for Saline/Vehicle vs Bleo/Vehicle; *p<0.05 for Bleo/Vehicle vs Bleo/WCSD.

[14] = young mice infused with Ang II two weeks, daily i.p. injections, echocardiography

88-95: CSD subdomain SFTTFTVT-NH2
suppression of AngII-induced fibrosis in the heart (Col I deposition and HSP47 level) ([1]; daily i.p. injections): most effective CSD subdomain | suppression of AngII-induced microvascular leakage in the heart (IgG heavy chain level in the tissue) ([1]; daily i.p. injections): almost completely suppressed | overall effectiveness of domains in the CHF model (summary of FIGS. 1-7) [1]: most effective Dimethyl sulfoxide (DMSO)-solubilized domain tested | suppression of the effects of AngII on Heart Weight/Body Weight (HW/BW) ratio ([1]; daily i.p. injections): most effective CSD subdomain | suppression of the effects of AngII on Ejection Fraction (EF), Fractional Shortening (FS), Isovolumic Relaxation Time (IVRT) [1, 14]: most effective CSD subdomain | suppression of the effects of AngII on Left Ventricle (LV) Mass and Posterior Wall Thickness (pWTh) [1, 14]: most effective CSD subdomain | bleomycin-induced lung fibrosis (Ashcroft score) [2]: suppression

COC(=O)c1ccc2c(c1)NC(=O)/C2=C(\Nc1ccc(N(C)C(=O)CN2CCN(C)CC2)cc1)c1ccccc1 [nintedanib]
inhibition of PDGFRβ [3]: inhibits | inhibition of VEGFR3 [4]: inhibits | inhibition of PKCε [5]: has no effect | inhibition of PKCα [6]: has no effect | inhibition of Src [7]: inhibit | inhibition of PDGFRα [8]: inhibits | inhibition of cMet [9]: has no effect | inhibition of VEGFR1 [10]: inhibits | inhibition of TGFβR1 [11]: inhibit | inhibition of VEGFR2 [12]: inhibit

94-101: CSD subdomain VTKYWFYR-NH2
bleomycin-induced lung fibrosis (Ashcroft score) [2]: suppression

82-89: CSD subdomain DGIWKASF-NH2
suppression of AngII-induced fibrosis in the heart (Col I deposition and HSP47 level) ([1]; daily i.p. injections): significant beneficial effect | suppression of AngII-induced microvascular leakage in the heart (IgG heavy chain level in the tissue) ([1]; daily i.p. injections): almost completely suppressed | overall effectiveness of domains in the CHF model (summary of FIGS. 1-7) [1]: active | suppression of the effects of AngII on Heart Weight/Body Weight (HW/BW) ratio ([1]; daily i.p. injections): essentially equally effective as 88-95 | suppression of the effects of AngII on Ejection Fraction (EF), Fractional Shortening (FS), Isovolumic Relaxation Time (IVRT) [1, 14]: significant beneficial effect | activity across all readouts of the bleomycin model (lung, skin, monocyte migration) ([2]; Example 4 summary): most active of the subdomains tested | bleomycin-induced lung fibrosis (Ashcroft score) [2]: suppression

CC[C@H](C)[C@H](NC(=O)CNC(=O)[C@H](CC(=O)O)NC(=O)[C@@H](CCCCN)NC(=O)[C@@H](CCCCN)NC(C)=O)C(=O)N[C@@H](Cc1c[nH]c2ccccc12)C(=O)N[C@@H](CCCCN)C(=O)N[C@@H](C)C(=O)N[C@@H](CO)C(=O)N[C@@H](Cc1ccccc1)C(=O)N[C@H](C(=O)N[C@H](C(=O)N[C@@H](Cc1ccccc1)C(=O)N[C@H](C(=O)N[C@H](C(=O)N[C@H](C(=O)N[C@@H](CCCCN)C(=O)N[C@@H](Cc1ccc(O)cc1)C(=O)N[C@@H](Cc1c[nH]c2ccccc12)C(=O)N[C@@H](Cc1ccccc1)C(=O)N[C@@H](Cc1ccc(O)cc1)C(=O)N[C@@H](CCCNC(=N)N)C(=O)N[C@H](CCCCN)C(=O)N[C@H](CCCCN)C(N)=O)[C@@H](C)O)C(C)C)[C@@H](C)O)[C@@H](C)O)[C@@H](C)O [WCSD] (Ac-[dK][dK]DGIWKASFTTFTVTKYWFYR[dK][dK]-NH2)
fibrocytes (CD45+/Col I+ cells) in lung ([13]; Flow Cytometry): almost completely suppressed by WCSD down to the levels in control, saline-treated mice | bleomycin-induced loss of the transdermal adipose layer in the skin ([13]; WCSD treatment beginning on day 8): suppresses the almost complete loss of the transdermal adipose layer | ECM proteins (Col I, Tenascin C) in lung ([13]; Western blotting, n=4): almost completely suppressed by WCSD down to the levels in control, saline-treated mice | microvascular leakage (IgG Heavy Chain remaining in the tissue after perfusion) in lung ([13]; Western blotting, n=4): almost completely suppressed by WCSD down to the levels in control, saline-treated mice | myofibroblast markers (HSP47, ASMA) in lung ([13]; Western blotting, n=4): almost completely suppressed by WCSD down to the levels in control, saline-treated mice | survival ([13]; bleomycin pump, daily i.p. WCSD): outstanding beneficial effect on survival | lung fibrosis and inflammatory cell infiltration (histology) ([13]; bleomycin, treatment also delayed until day 8): suppressed by WCSD even when treatment is delayed until day 8
